From PubChem BioAssay (NCI)
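The compound was tested at five concentrations on cells cultured in 96-well plates, with a 48-hour exposure period. The concentration for 50% growth inhibition is given as GI50. At the TGI there is no net growth.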

Key:
Experiment in all cases: growth of human tumour cells (NCI), 48 h
[1] = tested on: 786-0 renal
[2] = tested on: A498 renal
[3] = tested on: A549 NSCLC
[4] = tested on: ACHN renal
[5] = tested on: BT-549 breast
[6] = tested on: CAKI-1 renal
[7] = tested on: CCRF-CEM leukemia
[8] = tested on: COLO 205 colon
[9] = tested on: DU-145 prostate
[10] = tested on: EKVX NSCLC
[11] = tested on: HCC-2998 colon
[12] = tested on: HCT-116 colon
[13] = tested on: HCT-15 colon
[14] = tested on: HL-60(TB) leukemia
[15] = tested on: HOP-62 NSCLC
[16] = tested on: HOP-92 NSCLC
[17] = tested on: HS 578T breast
[18] = tested on: HT29 colon
[19] = tested on: IGROV1 ovarian
[20] = tested on: K-562 leukemia
[21] = tested on: KM12 colon
[22] = tested on: LOX IMVI melanoma
[23] = tested on: M14 melanoma
[24] = tested on: MALME-3M melanoma
[25] = tested on: MCF7 breast
[26] = tested on: MDA-MB-231 breast
[27] = tested on: MDA-MB-435
[28] = tested on: MOLT-4 leukemia
[29] = tested on: NCI-H226 lung
[30] = tested on: NCI-H23 lung
[31] = tested on: NCI-H460 lung
[32] = tested on: NCI-H522 lung
[33] = tested on: NCI/ADR-RES ovarian
[34] = tested on: OVCAR-3 ovarian
[35] = tested on: OVCAR-4 ovarian
[36] = tested on: OVCAR-5 ovarian
[37] = tested on: OVCAR-8 ovarian
[38] = tested on: PC-3 prostate
[39] = tested on: RPMI-8226 leukemia
[40] = tested on: RXF 393 renal
[41] = tested on: SF-268 CNS
[42] = tested on: SF-295 CNS
[43] = tested on: SF-539 CNS
[44] = tested on: SK-MEL-2 melanoma
[45] = tested on: SK-MEL-28 melanoma
[46] = tested on: SK-MEL-5 melanoma
[47] = tested on: SK-OV-3 ovarian
[48] = tested on: SN12C renal
[49] = tested on: SNB-19 CNS
[50] = tested on: SNB-75 CNS
[51] = tested on: SR leukemia
[52] = tested on: SW-620 colon
[53] = tested on: T-47D breast
[54] = tested on: TK-10 renal
[55] = tested on: U251 CNS
[56] = tested on: UACC-257 melanoma
[57] = tested on: UACC-62 melanoma
[58] = tested on: UO-31 renal

SMILES: Cc1cc(I)cc(CN(C)CCN(C)C)c1O
- GI50 [1]: 40.1 µM
- TGI [1]: > 100 µM
- GI50 [2]: 33.8 µM
- TGI [2]: > 77.9 µM
- GI50 [3]: 46.6 µM
- TGI [3]: > 100 µM
- GI50 [4]: 39.6 µM
- TGI [4]: > 100 µM
- GI50 [5]: 26.8 µM
- TGI [5]: > 78.3 µM
- GI50 [6]: 26.7 µM
- TGI [6]: > 80.4 µM
- GI50 [7]: < 0.0354 µM
- GI50 [8]: 17.3 µM
- TGI [8]: 33.3 µM
- GI50 [9]: 44.4 µM
- TGI [9]: > 100 µM
- GI50 [10]: 61.5 µM
- TGI [10]: > 100 µM
- GI50 [11]: 16.3 µM
- TGI [11]: 32.1 µM
- GI50 [12]: 24.9 µM
- TGI [12]: > 100 µM
- GI50 [13]: 28.5 µM
- TGI [13]: 76.5 µM
- GI50 [14]: 19.7 µM
- TGI [14]: 55.9 µM
- GI50 [15]: 37.8 µM
- TGI [15]: > 100 µM
- GI50 [16]: 17.1 µM
- TGI [16]: 67.3 µM
- GI50 [17]: 26 µM
- TGI [17]: > 69 µM
- GI50 [18]: 19.4 µM
- TGI [18]: 41.9 µM
- GI50 [19]: 27.7 µM
- TGI [19]: 82.7 µM
- GI50 [20]: 24.9 µM
- TGI [20]: > 64.3 µM
- GI50 [21]: 46.3 µM
- TGI [21]: > 100 µM
- GI50 [22]: 24.4 µM
- TGI [22]: > 73.1 µM
- GI50 [23]: 16 µM
- TGI [23]: 31.8 µM
- GI50 [24]: 18.9 µM
- TGI [24]: 36.8 µM
- GI50 [25]: 25.6 µM
- TGI [25]: 66.1 µM
- GI50 [26]: 26.7 µM
- TGI [26]: > 72.3 µM
- GI50 [27]: 18.8 µM
- TGI [27]: 48.9 µM
- GI50 [28]: 26.6 µM
- TGI [28]: > 68.6 µM
- GI50 [29]: 75.3 µM
- TGI [29]: > 100 µM
- GI50 [30]: 33.1 µM
- TGI [30]: > 100 µM
- GI50 [31]: 26.7 µM
- TGI [31]: > 100 µM
- GI50 [32]: 36.8 µM
- TGI [32]: > 100 µM
- GI50 [33]: 38.1 µM
- TGI [33]: > 100 µM
- GI50 [34]: 41.9 µM
- TGI [34]: > 100 µM
- GI50 [35]: 52.2 µM
- TGI [35]: > 100 µM
- GI50 [36]: 55.7 µM
- TGI [36]: > 100 µM
- GI50 [37]: 60 µM
- TGI [37]: > 100 µM
- GI50 [38]: 29.1 µM
- TGI [38]: > 100 µM
- GI50 [39]: 15.5 µM
- TGI [39]: 51.6 µM
- GI50 [40]: 25.5 µM
- TGI [40]: > 84.8 µM
- GI50 [41]: 20.7 µM
- TGI [41]: > 73 µM
- GI50 [42]: 20.5 µM
- TGI [42]: 56.8 µM
- GI50 [43]: 30.7 µM
- TGI [43]: > 82.8 µM
- GI50 [44]: 22.1 µM
- TGI [44]: 44.2 µM
- GI50 [45]: 18.2 µM
- TGI [45]: 33.4 µM
- GI50 [46]: 16.5 µM
- TGI [46]: 30.3 µM
- GI50 [47]: 76.6 µM
- TGI [47]: > 100 µM
- GI50 [48]: 47.4 µM
- TGI [48]: > 100 µM
- GI50 [49]: 64.3 µM
- TGI [49]: > 100 µM
- GI50 [50]: 21.9 µM
- TGI [50]: 59.9 µM
- GI50 [51]: 5.44 µM
- TGI [51]: 50.4 µM
- GI50 [52]: 39.5 µM
- TGI [52]: > 100 µM
- GI50 [53]: 28.8 µM
- TGI [53]: > 100 µM
- GI50 [54]: 33.1 µM
- TGI [54]: > 100 µM
- GI50 [55]: 39.2 µM
- TGI [55]: > 100 µM
- GI50 [56]: 39.3 µM
- TGI [56]: > 62 µM
- GI50 [57]: 17.8 µM
- TGI [57]: 33 µM
- GI50 [58]: 40.7 µM
- TGI [58]: > 100 µM
